From publication PMC9697198, “Carbonic Anhydrase Inhibition Activities of Schiff’s Bases Based on Quinazoline-Linked Benzenesulfonamide” (Molecules, 2022) come the findings set out here.

Molecules are shown by their SMILES. Where “and” joins values, the source holds several entries; their conditions need not be identical. Equal entries are not always repeated.

Broadly, the Ki is a dissociation constant, usually derived from enzyme kinetics or from competition with a known ligand. A high value points to lower affinity. A word on the melting point: it is the temperature, or range, at which the solid turns liquid.

For data set [1], the target named is hCA II (Homo sapiens, UniProt P00918). In words: hCA II inhibition, stopped-flow assay. Particulars: stopped-flow technique; mean from three different assays, errors ±5–10%. The class given is biochemical.
The target in data set [2] is hCA IX (Homo sapiens, UniProt Q16790). In words: hCA IX inhibition, stopped-flow assay. Particulars: for Selectivity Analysis hCA I/IX / Selectivity Analysis hCA II/IX: selectivity index (SI); for Selectivity Analysis hCA I/IX: ratio of Ki hCA I to Ki hCA IX; for Selectivity Analysis hCA II/IX: ratio of Ki hCA II to Ki hCA IX; for Ki: stopped-flow technique, mean from three different assays, errors ±5–10%. The data set is classed as biochemical.

The target in data set [3] is hCA XII (Homo sapiens, UniProt O43570). In words: hCA XII inhibition, stopped-flow assay. The class given is biochemical. Particulars: for Selectivity Analysis hCA I/XII / Selectivity Analysis hCA II/XII: selectivity index (SI); for Selectivity Analysis hCA I/XII: ratio of Ki hCA I to Ki hCA XII; for Selectivity Analysis hCA II/XII: ratio of Ki hCA II to Ki hCA XII; for Ki: stopped-flow technique, mean from three different assays, errors ±5–10%.
Chain of hCA XII (O43570 25-354): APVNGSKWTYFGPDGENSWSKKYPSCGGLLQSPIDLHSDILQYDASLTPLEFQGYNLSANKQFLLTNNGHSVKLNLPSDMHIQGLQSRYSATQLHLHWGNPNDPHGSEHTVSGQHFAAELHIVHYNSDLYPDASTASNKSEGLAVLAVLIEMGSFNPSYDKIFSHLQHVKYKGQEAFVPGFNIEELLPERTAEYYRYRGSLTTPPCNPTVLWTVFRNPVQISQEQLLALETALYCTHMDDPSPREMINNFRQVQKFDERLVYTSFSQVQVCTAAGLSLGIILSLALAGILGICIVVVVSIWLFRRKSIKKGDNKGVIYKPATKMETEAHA

The target in data set [4] is hCA I (Homo sapiens, UniProt P00915). In words: hCA I inhibition, stopped-flow assay. The data set is classed as biochemical. Particulars: stopped-flow technique; mean from three different assays, errors ±5–10%.
Chain of hCA I (P00915 whole entry): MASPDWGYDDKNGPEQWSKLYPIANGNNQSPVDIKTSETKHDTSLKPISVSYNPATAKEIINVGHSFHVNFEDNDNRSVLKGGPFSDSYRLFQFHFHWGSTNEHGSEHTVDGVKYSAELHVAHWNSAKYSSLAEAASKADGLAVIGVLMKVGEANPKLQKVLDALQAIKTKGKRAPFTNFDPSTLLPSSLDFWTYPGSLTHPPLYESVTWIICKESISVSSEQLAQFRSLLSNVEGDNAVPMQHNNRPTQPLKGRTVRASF

`CN(C)c1ccc(C=NNC(=O)CSc2nc3ccccc3c(=O)n2CCc2ccc(S(N)(=O)=O)cc2)cc1` [Compound 15, 4-(2-(2-((2-(2-(4-(Dimethylamino)benzylidene)hydrazineyl)-2-oxoethyl)thio)-4-oxoquinazolin-3(4H)-yl)ethyl)benzenesulfonamide]: the melting point lay within 280 to 281 °C. In data set [1], this molecule registered a Ki of 82.1 nM. Further, in data set [2], the “Selectivity Analysis hCA I/IX” value is listed as 6.56; the “Selectivity Analysis hCA II/IX” value turned out to be 0.92; the Ki was 89.1 nM and 88.6 nM. For the same molecule, in data set [3], the “Selectivity Analysis hCA I/XII” value turned out to be 85.58, the “Selectivity Analysis hCA II/XII” value came to 12.07 and the Ki came to 6.8 nM. In addition, in data set [4], the Ki is 582 nM.
Turning to `NS(=O)(=O)c1ccc(CCn2c(SCC(=O)NN=Cc3cccnc3)nc3ccccc3c2=O)cc1` [Compound 16, 4-(2-(4-Oxo-2-((2-oxo-2-(2-(pyridin-3-ylmethylene)hydrazineyl)ethyl)thio)quinazolin-3(4H)-yl)ethyl)benzenesulfonamide], the melting point fell in the range of 263 to 264 °C. The Ki in data set [1] stood at 23.8 nM. In data set [2], the “Selectivity Analysis hCA I/IX” value amounted to 5.5, the “Selectivity Analysis hCA II/IX” value is reported as 0.63 and the Ki stood at 37.8 nM. In data set [3], the “Selectivity Analysis hCA I/XII” value worked out at 10.0, the “Selectivity Analysis hCA II/XII” value was 1.14 and the Ki stood at 20.8 nM. The molecule also had a Ki in data set [4] of 208 nM.
In the case of `CC(=NNC(=O)CSc1nc2ccccc2c(=O)n1CCc1ccc(S(N)(=O)=O)cc1)c1ccccc1` [Compound 17, 4-(2-(4-Oxo-2-((2-oxo-2-(2-(1-phenylethylidene)hydrazineyl)ethyl)thio)quinazolin-3(4H)-yl)ethyl)benzenesulfonamide], the melting point lay in the range of 260 to 261 °C. Moreover, the affinity in data set [1] corresponds to a Ki of 67.5 nM. For the same molecule, in data set [2], the “Selectivity Analysis hCA I/IX” value is 2.23, the “Selectivity Analysis hCA II/IX” value was 1.21 and the Ki is 55.7 nM. For the same molecule, in data set [3], the “Selectivity Analysis hCA I/XII” value is 9.78, the “Selectivity Analysis hCA II/XII” value is 5.31 and the Ki is 12.7 nM. The affinity in data set [4] corresponds to a Ki of 124 nM.
With `CC(=NNC(=O)CSc1nc2ccccc2c(=O)n1CCc1ccc(S(N)(=O)=O)cc1)c1ccccc1N` [Compound 18, 4-(2-(2-((2-(2-(1-(2-Aminophenyl)ethylidene)hydrazineyl)-2-oxoethyl)thio)-4-oxoquinazolin-3(4H)-yl)ethyl)benzenesulfonamide], the melting point is 264 to 265 °C. The Ki in data set [1] was found to be 35.2 nM. In data set [2], the “Selectivity Analysis hCA I/IX” value is on record as 22.46; the “Selectivity Analysis hCA II/IX” value turned out to be 0.96; the affinity, expressed as Ki, was 36.7 nM. For the same molecule, in data set [3], the “Selectivity Analysis hCA I/XII” value is 45.04, the “Selectivity Analysis hCA II/XII” value is on record as 1.92 and affinity was put at a Ki of 18.3 nM. Besides, affinity in data set [4] was put at a Ki of 824 nM.
As to `CC(=NNC(=O)CSc1nc2ccccc2c(=O)n1CCc1ccc(S(N)(=O)=O)cc1)c1ccc(N)cc1` [Compound 19, 4-(2-(2-((2-(2-(1-(4-Aminophenyl)ethylidene)hydrazineyl)-2-oxoethyl)thio)-4-oxoquinazolin-3(4H)-yl)ethyl)benzenesulfonamide], the melting point fell in the range of 308 to 309 °C. Further, in data set [1], the Ki is 59.3 nM. Also, in data set [2], the “Selectivity Analysis hCA I/IX” value is reported as 75.77, the “Selectivity Analysis hCA II/IX” value worked out at 10.22 and affinity was put at a Ki of 5.8 nM. Further, in data set [3], the “Selectivity Analysis hCA I/XII” value was determined as 27.64, the “Selectivity Analysis hCA II/XII” value was determined as 3.72 and the Ki turned out to be 15.9 nM. In addition, in data set [4], the inhibition constant Ki turned out to be 439 nM.
The molecule `CC(=NNC(=O)CSc1nc2ccccc2c(=O)n1CCc1ccc(S(N)(=O)=O)cc1)c1ccc(Br)cc1` [Compound 20, 4-(2-(2-((2-(2-(1-(4-Bromophenyl)ethylidene)hydrazineyl)-2-oxoethyl)thio)-4-oxoquinazolin-3(4H)-yl)ethyl)benzenesulfonamide] had a melting point of 302 to 303 °C. The molecule further registered a Ki in data set [1] of 698 nM. Also, in data set [2], the “Selectivity Analysis hCA I/IX” value came to 13.6, the “Selectivity Analysis hCA II/IX” value is reported as 7.01 and the Ki is 99.6 nM. Besides, in data set [3], the “Selectivity Analysis hCA I/XII” value is 15.27, the “Selectivity Analysis hCA II/XII” value is given as 7.86 and the Ki stood at 88.8 nM. In data set [4], this molecule came in with a Ki of 1360 nM.
The molecule `CC(=NNC(=O)CSc1nc2ccccc2c(=O)n1CCc1ccc(S(N)(=O)=O)cc1)c1ccccc1Cl` [Compound 21, 4-(2-(2-((2-(2-(1-(2-Chlorophenyl)ethylidene)hydrazineyl)-2-oxoethyl)thio)-4-oxoquinazolin-3(4H)-yl)ethyl)benzenesulfonamide] returned a melting point of 273 to 275 °C. Also, the affinity in data set [1] corresponds to a Ki of 324 nM. Besides, in data set [2], the “Selectivity Analysis hCA I/IX” value stood at 25.27, the “Selectivity Analysis hCA II/IX” value is on record as 7.15 and the affinity corresponds to a Ki of 45.3 nM. In data set [3], the “Selectivity Analysis hCA I/XII” value is recorded as 19.74, the “Selectivity Analysis hCA II/XII” value was determined as 5.59 and the Ki is 58 nM. Further, the Ki in data set [4] was found to be 1140 nM.
On to `CC(=NNC(=O)CSc1nc2ccccc2c(=O)n1CCc1ccc(S(N)(=O)=O)cc1)c1cccc(Cl)c1` [Compound 22, 4-(2-(2-((2-(2-(1-(3-Chlorophenyl)ethylidene)hydrazineyl)-2-oxoethyl)thio)-4-oxoquinazolin-3(4H)-yl)ethyl)benzenesulfonamide], for which the melting point was in the range of 297 to 298 °C. In data set [1], the affinity corresponds to a Ki of 339 nM. Further, in data set [2], the “Selectivity Analysis hCA I/IX” value worked out at 11.51, the “Selectivity Analysis hCA II/IX” value was 4.50 and affinity was put at a Ki of 75.3 nM. Moreover, in data set [3], the “Selectivity Analysis hCA I/XII” value worked out at 18.49, the “Selectivity Analysis hCA II/XII” value is reported as 7.23 and the affinity corresponds to a Ki of 46.9 nM. The molecule also displayed a Ki in data set [4] of 867 nM.
Molecule `CC(=NNC(=O)CSc1nc2ccccc2c(=O)n1CCc1ccc(S(N)(=O)=O)cc1)c1ccc(Cl)cc1` [Compound 23, 4-(2-(2-((2-(2-(1-(4-Chlorophenyl)ethylidene)hydrazineyl)-2-oxoethyl)thio)-4-oxoquinazolin-3(4H)-yl)ethyl)benzenesulfonamide] came in with a melting point of 278 to 280 °C. The molecule also had a Ki in data set [1] of 157 nM. In data set [2], the “Selectivity Analysis hCA I/IX” value amounted to 8.67, the “Selectivity Analysis hCA II/IX” value was determined as 2.41 and the Ki was found to be 65 nM. In data set [3], the “Selectivity Analysis hCA II/XII” value amounted to 2.56 and the Ki was 61.2 nM. For the same molecule, the Ki in data set [4] stood at 563 nM.
For the molecule `CC(=NNC(=O)CSc1nc2ccccc2c(=O)n1CCc1ccc(S(N)(=O)=O)cc1)c1ccc(F)cc1` [Compound 24, 4-(2-(2-((2-(2-(1-(4-Fluorophenyl)ethylidene)hydrazineyl)-2-oxoethyl)thio)-4-oxoquinazolin-3(4H)-yl)ethyl)benzenesulfonamide], the melting point is 299 to 300 °C. The molecule further returned a Ki in data set [1] of 39.5 nM. Moreover, in data set [2], the “Selectivity Analysis hCA I/IX” value is listed as 6.55, the “Selectivity Analysis hCA II/IX” value was 1.38 and affinity was put at a Ki of 28.5 nM. Also, in data set [3], the “Selectivity Analysis hCA I/XII” value came to 7.35, the “Selectivity Analysis hCA II/XII” value is reported as 1.55 and the Ki is 25.4 nM. Moreover, the affinity in data set [4], expressed as Ki, was 187 nM.
`CC(=NNC(=O)CSc1nc2ccccc2c(=O)n1CCc1ccc(S(N)(=O)=O)cc1)c1ccc(C)cc1` [Compound 25, 4-(2-(4-Oxo-2-((2-oxo-2-(2-(1-(p-tolyl)ethylidene)hydrazineyl)ethyl)thio)quinazolin-3(4H)-yl)ethyl)benzenesulfonamide] showed a melting point of 288 to 290 °C. In data set [1], the Ki was 126 nM. In addition, in data set [2], the “Selectivity Analysis hCA I/IX” value worked out at 14.28, the “Selectivity Analysis hCA II/IX” value is listed as 2.87 and the Ki was 43.9 nM. Moreover, in data set [3], the “Selectivity Analysis hCA I/XII” value is on record as 10.90, the “Selectivity Analysis hCA II/XII” value is 2.19 and the Ki was determined as 57.5 nM. Further, in data set [4], the Ki was found to be 627 nM.
With `CC(=NNC(=O)CSc1nc2ccccc2c(=O)n1CCc1ccc(S(N)(=O)=O)cc1)c1ccccn1` [Compound 26, 4-(2-(4-Oxo-2-((2-oxo-2-(2-(1-(pyridin-2-yl)ethylidene)hydrazineyl)ethyl)thio)quinazolin-3(4H)-yl)ethyl)benzenesulfonamide], the melting point was 300 to 301 °C. The molecule also displayed a Ki in data set [1] of 22.8 nM. In addition, in data set [2], the “Selectivity Analysis hCA I/IX” value worked out at 0.77, the “Selectivity Analysis hCA II/IX” value came out at 0.33 and the inhibitory constant (Ki) turned out to be 68.2 nM. Moreover, in data set [3], the “Selectivity Analysis hCA I/XII” value is reported as 1.85, the “Selectivity Analysis hCA II/XII” value is reported as 0.80 and the affinity corresponds to a Ki of 28.5 nM. This molecule returned a Ki in data set [4] of 52.8 nM.
